Measured values from the NIST ThermoML archive (doi:10.1021/je900550v).

Details: 101.33 kPa, Liquid; for speed of sound: Pulse-echo method; for mass density: Vibrating tube method

CCCCC(=O)[O-].C[NH2+]CCO [2-hydroxy-N-methylethanaminium pentanoate]
Details | mass density [kg/m3] | speed of sound [m/s] | viscosity [mPa·s]
308.15 K | 1009.51 | 1517.6 | 133.08
308.4 K | 1009.34 | 1516.8 | –
308.65 K | 1009.18 | 1516.1 | –
308.9 K | 1009.01 | 1515.3 | –
309.15 K | 1008.84 | 1514.5 | –
309.4 K | 1008.67 | 1513.8 | –
309.65 K | 1008.5 | 1513 | –
309.9 K | 1008.33 | 1512.2 | –
310.15 K | 1008.16 | 1511.4 | 117.28
310.4 K | 1007.99 | 1510.7 | –
310.65 K | 1007.82 | 1509.9 | –
310.91 K | 1007.65 | 1509.1 | –
311.16 K | 1007.48 | 1508.3 | –
311.4 K | 1007.31 | 1507.6 | –
311.65 K | 1007.14 | 1506.8 | –
311.91 K | 1006.97 | 1506 | –
312.16 K | 1006.8 | 1505.3 | –
312.41 K | 1006.63 | 1504.5 | –
312.66 K | 1006.46 | 1503.7 | –
312.91 K | 1006.29 | 1503 | –
313.15 K | – | – | 102.38
313.16 K | 1006.12 | 1502.2 | –
313.4 K | 1005.95 | 1501.4 | –
313.66 K | 1005.78 | 1500.7 | –
313.9 K | 1005.61 | 1499.9 | –
314.15 K | 1005.44 | 1499.1 | –
314.4 K | 1005.27 | 1498.3 | –
314.65 K | 1005.09 | 1497.6 | –
314.9 K | 1004.92 | 1496.8 | –
315.15 K | 1004.75 | 1496 | 91.92
315.41 K | 1004.58 | 1495.3 | –
315.65 K | 1004.4 | 1494.5 | –
315.91 K | 1004.24 | 1493.8 | –
316.16 K | 1004.07 | 1493 | –
316.41 K | 1003.89 | 1492.2 | –
316.66 K | 1003.72 | 1491.5 | –
316.91 K | 1003.55 | 1490.7 | –
317.16 K | 1003.38 | 1489.9 | –
317.4 K | 1003.21 | 1489.2 | –
317.66 K | 1003.04 | 1488.4 | –
317.91 K | 1002.86 | 1487.6 | –
318.15 K | – | – | 80.38
318.16 K | 1002.69 | 1486.9 | –
318.41 K | 1002.52 | 1486.1 | –
318.65 K | 1002.35 | 1485.3 | –
318.9 K | 1002.18 | 1484.6 | –
319.16 K | 1002 | 1483.8 | –
319.41 K | 1001.83 | 1483.1 | –
319.65 K | 1001.66 | 1482.3 | –
319.91 K | 1001.49 | 1481.5 | –
320.16 K | 1001.32 | 1480.8 | –
320.41 K | 1001.14 | 1480 | –
320.65 K | 1000.97 | 1479.2 | 70.74
320.91 K | 1000.8 | 1478.5 | –
321.15 K | 1000.62 | 1477.7 | –
321.41 K | 1000.45 | 1476.9 | –
321.66 K | 1000.28 | 1476.1 | –
321.9 K | 1000.1 | 1475.4 | –
322.15 K | 999.932 | 1474.6 | –
322.41 K | 999.756 | 1473.8 | –
322.65 K | 999.586 | 1473.1 | –
